The source of these data is ChEMBL document CHEMBL2029246, “Identification of benzoxazole analogs as novel, S1P(3) sparing S1P(1) agonists” (Bioorg Med Chem Lett, 2012).

The species entered for data set [1] is Mus musculus. Briefly: Lymphopenic activity in C57BL/6 mouse assessed as reduction in blood lymphocytes after 4 to 8 weeks relative to control. It counts as functional, organism-based.
For data set [2], the species on record is Mus musculus. The experiment in a line: Lymphopenic activity in C57BL/6 mouse assessed as reduction in blood lymphocytes relative to control. Type of data set: functional. Further details: scale not given: the % may be the effect or the level left.
Data set [3] concerns the target Sphingosine 1-phosphate receptor 3 (Homo sapiens, UniProt Q99500). The experiment in a line: Agonist activity at human SIP3 receptor assessed as calcium mobilization by GeneBLAzer assay. It counts as functional. (Calcium flux is commonly read through the fluorescence of an indicator in the cells.)
Data set [4] concerns the target Sphingosine 1-phosphate receptor 1 (Homo sapiens, UniProt P21453). Briefly: Agonist activity at SIP1 receptor by tango assay. It counts as functional.
The species entered for a further data set is Homo sapiens. Briefly: Selectivity ratio of EC50 for SIP1 receptor to EC50 for human SIP3 receptor.
A short description of data set [5]: Half life in mouse at 2 mg/kg, po. The conditions noted are these: in vivo. Further details: dose 2 mg/kg, route oral. Type of data set: ADME, organism-based.
The nature of data set [6]: Ratio of drug level in brain to blood in iv dosed mouse after 1 hr. It counts as ADME, organism-based. As to conditions: read-out: BBR.
In data set [7] the test system is Mus musculus. Briefly: Lymphopenic activity in mouse assessed as reduction in blood lymphocytes at 1 mg/kg after 24 hrs relative to control. It counts as functional, organism-based. Further details: dose 1 mg/kg.
Data set [8] is described as follows: Volume of distribution in iv dosed mouse. Type of data set: ADME, organism-based. The conditions noted are these: in vivo.
Data set [9] in a line: Cmax in mouse at 2 mg/kg, po. It counts as ADME, organism-based. Further details: dose 2 mg/kg, route oral. As to conditions: in vivo.
Data set [10] relates to Mus musculus. Briefly: Lymphopenia activity in mouse assessed as reduction in blood lymphocytes at 1 mg/kg after 4 hrs relative to control. It counts as functional. Further details: scale not given: the % may be the effect or the level left.
The nature of data set [11]: Ratio of drug level in brain to blood in iv dosed mouse after 4 hrs. Type of data set: ADME, organism-based. The conditions noted are these: read-out: BBR.
Data set [12] in a line: Oral bioavailability in mouse at 2 mg/kg. The conditions noted are these: in vivo. Type of data set: ADME, organism-based.
Data set [13] can be described thus: Clearance in iv dosed mouse. Type of data set: ADME, organism-based. The conditions noted are these: in vivo.
The nature of data set [14]: AUC (0 to 24 hrs) in mouse at 2 mg/kg, po. It counts as ADME, organism-based. Further details: time < 24 hr, dose 2 mg/kg, route oral. The conditions noted are these: plasma.

Active and inactive are the calls of the source.

Sphingosine 1-phosphate receptor 1, sequence (P21453 whole entry): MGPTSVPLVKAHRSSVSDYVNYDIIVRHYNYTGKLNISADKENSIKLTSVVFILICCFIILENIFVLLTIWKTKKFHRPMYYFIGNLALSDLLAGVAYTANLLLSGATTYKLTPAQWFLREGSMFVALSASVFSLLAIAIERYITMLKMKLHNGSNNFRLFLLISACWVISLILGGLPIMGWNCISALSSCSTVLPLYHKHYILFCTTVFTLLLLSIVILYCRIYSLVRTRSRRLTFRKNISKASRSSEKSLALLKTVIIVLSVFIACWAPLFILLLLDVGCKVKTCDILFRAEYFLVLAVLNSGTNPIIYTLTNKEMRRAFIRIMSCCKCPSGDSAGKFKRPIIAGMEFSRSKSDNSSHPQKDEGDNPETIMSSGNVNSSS
Sphingosine 1-phosphate receptor 3, sequence (Q99500 whole entry): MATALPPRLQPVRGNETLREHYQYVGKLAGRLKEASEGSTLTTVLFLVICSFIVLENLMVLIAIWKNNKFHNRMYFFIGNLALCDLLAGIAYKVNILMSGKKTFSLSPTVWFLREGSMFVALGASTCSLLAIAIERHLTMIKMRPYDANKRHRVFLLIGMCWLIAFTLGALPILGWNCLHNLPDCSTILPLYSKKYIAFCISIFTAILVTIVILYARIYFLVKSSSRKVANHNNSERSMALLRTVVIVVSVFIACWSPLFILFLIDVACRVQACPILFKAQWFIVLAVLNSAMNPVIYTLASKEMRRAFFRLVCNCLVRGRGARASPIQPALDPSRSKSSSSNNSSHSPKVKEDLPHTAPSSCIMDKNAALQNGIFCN

As for `CCCCCCCCc1ccc(CCC(N)(CO)CO)cc1.Cl` [FINGOLIMOD HYDROCHLORIDE], the result in the data set listed under Mus musculus [1] was inactive. For the same molecule, the Activity in the data set listed under Mus musculus [2] is given as 20%.

With `CC(C)Oc1ncc(-c2nc3cc(CCCCCC(=O)O)cnc3o2)cc1Cl`, the EC50 is greater than 10000 nM in [3] and 1000 nM in data set [4].

As for `O=C(O)CCCCCc1ccn2nc(-c3ccc(-c4ccccc4)c(C(F)(F)F)c3)nc2c1`, the EC50 in [3] was greater than 10000 nM; in data set [4], 126 nM.

In the case of `CC(C)Oc1ccc(-c2nc3cc(CCCC(=O)O)cnc3o2)cc1Cl`, the concentration for a half-maximal effect (EC50) in data set [3] is greater than 10000 nM; in [4], 1000 nM.

In data set [4], `CC(C)Oc1ccc(-c2nc(-c3cccc4c3ccn4CCC(=O)O)no2)cc1Cl` had an EC50 of 0.01 nM. Moreover, the Ratio EC50 in the data set listed under Homo sapiens came out at 1e+06.

Take `O=C(O)CCCCCc1ccn2cc(-c3ccc(-c4ccccc4)c(C(F)(F)F)c3)nc2c1`: the EC50 is greater than 10000 nM in [3] and 398 nM in [4].

On to `O=C(O)CCCCCc1cnc2sc(-c3ccc(-c4ccccc4)c(C(F)(F)F)c3)nc2c1`, for which the EC50 in [3] is greater than 10000 nM; in [4], 10 nM.

Take `CC(C)Oc1ccc(-c2nc3cc(CCCCC(=O)O)cnc3o2)cc1Cl`: the 50% effective concentration (EC50) was greater than 10000 nM in [3] and 158 nM in [4].

As for `O=C(O)C1CCN(CCc2ccc3oc(-c4ccc(-c5ccccc5)c(C(F)(F)F)c4)nc3c2)CC1`, the figures for the EC50 in data set [3] and in [4] were 501 nM and 0.158 nM, respectively.

For `O=C(O)CCCCCc1cn2cc(-c3ccc(-c4ccccc4)c(C(F)(F)F)c3)nc2s1`, the EC50 was greater than 10000 nM in data set [3] and 63.1 nM in data set [4].

Take `CC(C)Oc1ccc(-c2nc3cc(CC(=O)O)cnc3o2)cc1Cl`: the EC50 in [3] is greater than 10000 nM; in [4], greater than 3160 nM.

Consider `O=C(O)CCCCCc1cnc2oc(-c3cc(-c4ccccc4)c(C(F)(F)F)s3)nc2c1`, for which the EC50 in [3] is greater than 10000 nM; in data set [4] it was 398 nM.

For `O=C(O)CCCCCc1cnc2oc(-c3ccc(-c4ccccc4)c(C(F)(F)F)c3)nc2c1`, the figures for the EC50 in data set [3] and in data set [4] were greater than 10000 nM and 0.316 nM, respectively.

As for `O=C(O)CNCCCc1ccc2oc(-c3ccc(-c4ccccc4)c(C(F)(F)F)c3)nc2c1`, the EC50 in data set [3] is 251 nM; in [4] it was 0.0316 nM. For the same molecule, the Ratio EC50 in the data set filed under Homo sapiens was greater than 1000.

Consider `CC(C)Oc1ccc(-c2nc3cc(C(=O)O)cnc3o2)cc1Cl`, for which the EC50 was greater than 10000 nM in [3] and greater than 3160 nM in [4].

In the case of `O=C(O)C1CCCN(CCCc2ccc3oc(-c4ccc(-c5ccccc5)c(C(F)(F)F)c4)nc3c2)C1` (centres undefined), the EC50 in data set [3] is 2000 nM; in data set [4] it was 0.501 nM.

On to `O=C(O)C1CCN(CCCc2ccc3oc(-c4ccc(-c5ccccc5)c(C(F)(F)F)c4)nc3c2)CC1`, for which the EC50 was 501 nM in data set [3] and 0.794 nM in data set [4].

Regarding `O=C(O)CCN1CCC(c2ccc3oc(-c4ccc(-c5ccccc5)c(C(F)(F)F)c4)nc3c2)CC1`, the figures for the EC50 in data set [3] and in [4] were 1000 nM and 0.0794 nM, respectively.

In the case of `O=C(O)CCCCCc1ccc2oc(-c3ccc(-c4ccccc4)c(C(F)(F)F)c3)nc2c1`, the EC50 in data set [3] was greater than 10000 nM; in data set [4] it was 0.398 nM.

For the molecule `O=C(O)CC1CCN(c2ccc3oc(-c4ccc(-c5ccccc5)c(C(F)(F)F)c4)nc3c2)CC1`, the EC50 in data set [3] is 1260 nM; in [4], 1.26 nM.

For the molecule `O=C(O)CN1CCC(c2ccc3oc(-c4ccc(-c5ccccc5)c(C(F)(F)F)c4)nc3c2)CC1`, the EC50 was 2000 nM in data set [3] and 1 nM in data set [4].

As to `CC(C)Oc1ccc(-c2nc3cc(CCCCCC(=O)O)cnc3o2)cc1C(F)(F)F`, the EC50 in [3] is greater than 10000 nM; in data set [4], 20 nM.

Take `O=C(O)CCCCCc1ccc2[nH]c(-c3ccc(-c4ccccc4)c(C(F)(F)F)c3)cc2c1`: the EC50 in data set [3] is greater than 10000 nM; in data set [4], 126 nM.

In the case of `O=C(O)C1CCN(c2ccc3oc(-c4ccc(-c5ccccc5)c(C(F)(F)F)c4)nc3c2)CC1`, the half-life in data set [5] was 5.4 h. The EC50 in [3] was greater than 3160 nM; in [4], 0.631 nM. Moreover, in data set [6], the Kp at 1 h was 1.45. For the same molecule, the result with Mus musculus [7] was inactive. In data set [8], this molecule showed a Vd of 1.48 L/kg. The molecule further returned a Cmax in data set [9] of 1070 ng/mL. For the same molecule, the Activity in the data set with Mus musculus [10] is 37%. Moreover, in data set [11], the Kp at 4 h is 3.73. In [12], this molecule returned a bioavailability greater than 100%. The molecule further displayed a clearance in data set [13] of 3.68 mL/min/kg. This molecule registered an AUC(0-t) at 24 h in [14] of 10300 ng·h/mL.

For the molecule `O=C(O)CCNCCc1ccc2oc(-c3ccc(-c4ccccc4)c(C(F)(F)F)c3)nc2c1`, the EC50 in data set [3] was 200 nM; in data set [4], 0.0316 nM.

In the case of `CC(C)Oc1ccc(-c2nc3cc(CCC(=O)O)cnc3o2)cc1Cl`, the EC50 in data set [3] was greater than 10000 nM; in data set [4], greater than 3160 nM.

For `CC(C)Oc1ncc(-c2nc3cc(CCCCCC(=O)O)cnc3o2)cc1C(F)(F)F`, the EC50 is greater than 10000 nM in data set [3] and 6.31 nM in data set [4].

For the molecule `O=C(O)CN1CCN(c2ccc3oc(-c4ccc(-c5ccccc5)c(C(F)(F)F)c4)nc3c2)CC1`, the EC50 in data set [3] is 2000 nM; in data set [4], 0.398 nM.

On to `O=C(O)C1CN(CCc2ccc3oc(-c4ccc(-c5ccccc5)c(C(F)(F)F)c4)nc3c2)C1`, for which the results for the EC50 in [3] and in data set [4] were 794 nM and 0.398 nM, respectively.

As for `O=C(O)C1CN(c2ccc3oc(-c4ccc(-c5ccccc5)c(C(F)(F)F)c4)nc3c2)C1`, the values for the EC50 in [3] and in data set [4] were 2000 nM and 10 nM, respectively.

`CN(CCCc1ccc2oc(-c3ccc(-c4ccccc4)c(C(F)(F)F)c3)nc2c1)CC(=O)O`: the figures for the half-maximal effective concentration (EC50) in data set [3] and in [4] were 1000 nM and 0.316 nM, respectively.

With `O=C(O)C1CN(CCCc2ccc3oc(-c4ccc(-c5ccccc5)c(C(F)(F)F)c4)nc3c2)C1`, the concentration giving a half-maximal response (EC50) in [3] is 126 nM; in data set [4], 0.1 nM.

`CC(C)Oc1ccc(-c2nc(-c3cccc4c3c(Cl)cn4CCC(=O)O)no2)cc1Cl`: the EC50 in data set [3] is greater than 10000 nM; in data set [4], 0.0251 nM.

In the case of `CC(C)Oc1ccc(-c2nc3cc(CCCCCC(=O)O)cnc3o2)cc1Cl`, the values for the EC50 in data set [3] and in data set [4] were greater than 10000 nM and 158 nM, respectively.

By EC50 is commonly meant the concentration giving half of the maximal effect. The half-life is the time needed for the level to fall by half in the phase considered. The Vd is the apparent volume that relates the amount in the body to the concentration in plasma or blood. Usually Cmax stands for the peak of the concentration-time curve. What is called bioavailability is dose-corrected exposure relative to a reference, in per cent. As usually defined, the clearance is the rate of elimination divided by the concentration. For orientation: AUC(0-t) means the area under the concentration-time curve up to a stated or last time point.
